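Results reflect a 48-hour exposure of cells in 96-well plates to compound at five concentrations. The concentration for 50% growth inhibition is given as GI50.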 Active and inactive are the calls of the source. Rule as the data show it: active = GI50 up to about 1.1 µM and inactive = higher.
Columns and labels:
Assay in all cases: growth of human tumour cells (NCI), 48 h
NCI/ADR-RES = system: NCI/ADR-RES
NCI-H226 = system: NCI-H226
SF-268 = system: SF-268
T47D = system: T47D
A498 = system: A498
SK-MEL-5 = system: SK-MEL-5
Hs-578T = system: Hs-578T
SF-295 = system: SF-295
MDA-N = system: MDA-N
MOLT-4 = system: MOLT-4
KM12 = system: KM12
PC-3 = system: PC-3
UO-31 = system: UO-31
MDA-MB-435 = system: MDA-MB-435
TK-10 = system: TK-10
SF-539 = system: SF-539
RPMI-8226 = system: RPMI-8226
CCRF-CEM = system: CCRF-CEM
IGROV-1 = system: IGROV-1

Measured: GI50

C[C@]12O[C@@]3(C)O[C@@]3(C)[C@]3(C)O[C@]3(C)[C@@]1(C)O2
inactive: NCI/ADR-RES > 100 µM | NCI-H226 > 100 µM | SF-268 > 100 µM | T47D 1.22 µM | A498 > 100 µM | SK-MEL-5 > 100 µM | Hs-578T > 100 µM | SF-295 > 100 µM | MDA-N > 100 µM | MOLT-4 > 100 µM | KM12 > 100 µM | PC-3 > 100 µM | UO-31 > 100 µM | MDA-MB-435 > 100 µM | TK-10 > 100 µM

COc1ccc2c(c1)CCc1[nH]c3ccccc3c1CCCC2
inactive: NCI/ADR-RES > 10 µM | SF-268 > 10 µM | T47D > 10 µM | SK-MEL-5 > 10 µM | Hs-578T > 10 µM | SF-539 > 10 µM | RPMI-8226 > 10 µM | SF-295 > 10 µM | MDA-N > 10 µM | MOLT-4 > 10 µM | CCRF-CEM > 10 µM | KM12 > 10 µM | IGROV-1 > 10 µM | PC-3 > 10 µM | MDA-MB-435 > 10 µM | TK-10 > 10 µM

CCCNC(=O)Cn1c(-c2ccccc2)cc2ccccc21
inactive: NCI/ADR-RES 42.4 µM | NCI-H226 > 100 µM | SF-268 92 µM | T47D 24.2 µM | SK-MEL-5 30.5 µM | Hs-578T 31.8 µM | SF-539 > 100 µM | RPMI-8226 > 100 µM | SF-295 88.7 µM | MDA-N 83.4 µM | MOLT-4 85.1 µM | CCRF-CEM > 100 µM | KM12 > 100 µM | IGROV-1 43.9 µM | PC-3 41.1 µM | UO-31 > 100 µM | MDA-MB-435 77.3 µM | TK-10 43.1 µM

O=C1CN(c2ccccc2)Cc2nc(Cl)ccc2N1
inactive: NCI/ADR-RES 94 µM | NCI-H226 > 100 µM | SF-268 > 100 µM | T47D > 100 µM | SK-MEL-5 > 100 µM | Hs-578T 61.9 µM | SF-539 > 100 µM | RPMI-8226 > 100 µM | SF-295 > 100 µM | MDA-N > 100 µM | MOLT-4 > 100 µM | CCRF-CEM > 100 µM | KM12 > 100 µM | IGROV-1 > 100 µM | PC-3 79.4 µM | UO-31 > 100 µM | MDA-MB-435 > 100 µM | TK-10 > 100 µM

CCC1(CC)C(=O)N(C(=O)c2ccccc2)N(C(=O)c2ccc(Cl)cc2)C1=O
inactive: NCI/ADR-RES > 75 µM | NCI-H226 > 75 µM | SF-268 > 75 µM | T47D > 75 µM | SK-MEL-5 > 75 µM | Hs-578T > 75 µM | RPMI-8226 20 µM | SF-295 > 75 µM | MDA-N > 75 µM | MOLT-4 17 µM | CCRF-CEM 12.7 µM | KM12 > 75 µM | IGROV-1 > 75 µM | PC-3 > 75 µM | UO-31 > 75 µM | MDA-MB-435 > 75 µM | TK-10 > 75 µM

CSc1nc(C)c(CCCl)c(Cl)n1
inactive: NCI/ADR-RES > 100 µM | SF-268 > 100 µM | T47D > 100 µM | A498 > 100 µM | SK-MEL-5 42.1 µM | Hs-578T > 100 µM | SF-539 > 100 µM | SF-295 > 100 µM | MDA-N 49.8 µM | MOLT-4 27.4 µM | CCRF-CEM 20.8 µM | IGROV-1 > 100 µM | PC-3 > 100 µM | UO-31 > 100 µM | MDA-MB-435 34.1 µM | TK-10 > 100 µM

CC(C)=CCN=C(N)N
inactive: NCI/ADR-RES > 100 µM | NCI-H226 > 100 µM | SF-268 > 100 µM | T47D > 100 µM | SK-MEL-5 > 100 µM | Hs-578T > 100 µM | SF-539 > 100 µM | RPMI-8226 24.9 µM | SF-295 > 100 µM | MDA-N > 100 µM | MOLT-4 51.2 µM | CCRF-CEM > 100 µM | KM12 > 100 µM | IGROV-1 > 100 µM | PC-3 > 100 µM | UO-31 > 100 µM | MDA-MB-435 > 100 µM | TK-10 > 100 µM
